Laboratory results from patent US9701630B2, “Difluorolactam compositions for EP4-mediated osteo related diseases and conditions” (Cayman Chemical Company, Inc., priority 2012, dated 2017).

Assays:
[1] = system: calvarial bone defect; test: Rat calvarial defect model (bone formation); format: in vivo; settings: female Sprague Dawley rats, in calcium phosphate cement/demineralized bone matrix, 3 μg/ml to 3 mg/ml, eight weeks; data in FIG. 1
[2] = biological target: T1, rat EP4 receptor (Rattus norvegicus, UniProt P43114); test: STEP plate cAMP level assay for EP4 agonist; format: cell-based; settings: cAMP readout, read-out: STEP cell functional assay EC50s cAMP/EP4
T1 construct: host or cells: cells seeded on the STEP plate
Excerpt: Functional Cellular Assays (STEP Plate Format)
Procedure of cAMP Assay for EP2/EP4 Agonist
3. […] In addition each concentration had triplicates.
6. Aspirate the supernatant.

T1 sequence (P43114 whole entry): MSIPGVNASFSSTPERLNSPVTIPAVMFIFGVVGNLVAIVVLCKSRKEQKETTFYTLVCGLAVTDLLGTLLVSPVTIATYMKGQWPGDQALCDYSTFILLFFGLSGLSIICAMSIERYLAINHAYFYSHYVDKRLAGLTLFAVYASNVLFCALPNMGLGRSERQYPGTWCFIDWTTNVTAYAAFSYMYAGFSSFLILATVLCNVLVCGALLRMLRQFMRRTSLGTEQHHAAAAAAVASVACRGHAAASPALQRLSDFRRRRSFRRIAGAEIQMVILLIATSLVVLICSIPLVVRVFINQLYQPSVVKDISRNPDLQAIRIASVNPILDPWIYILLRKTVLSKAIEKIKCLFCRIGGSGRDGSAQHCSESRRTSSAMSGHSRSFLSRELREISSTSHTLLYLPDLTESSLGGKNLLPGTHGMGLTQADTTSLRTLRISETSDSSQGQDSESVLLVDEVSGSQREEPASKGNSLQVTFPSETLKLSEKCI

Row | SMILES | Healing of a calvarial bone defect (degree of repair) [1] | EC50 [2]
1 | CCC#CC[C@H](C)[C@H](O)/C=C/[C@H]1CC(F)(F)C(=O)N1CCCCCCC(=O)O [Example 2C, 7-((R)-3,3-difluoro-5-((3S,4S,E)-3-hydroxy-4-methylnon-1-en-6-yn-1-yl)-2-oxopyrrolidin-1-yl)heptanoic acid] | Accelerated Healing | 
2 | COC(=O)c1ccc(CCCN2C(=O)C(F)(F)C[C@@H]2/C=C/[C@@H](O)[C@H](C)CCCc2ccccc2)s1 [Example 28E, methyl 5-(3-((R)-3,3-difluoro-5-((3S,4R,E)-3-hydroxy-4-methyl-7-phenylhept-1-en-1-yl)-2-oxopyrrolidin-1-yl)propyl)thiophene-2-carboxylate] |  | 50.8 nM
